pIC50: −log10 of the molar value. Like-named read-outs stand apart in the source and are kept apart here.
Assays:
[1] = system: synthesis rates of rat brain catecholamines; conditions: ip
Protocol: Test compounds were administered to rats i.p. 30 minutes before the injection of the L-aromatic amino acid decarboxylase inhibitor, NSD 1015 (100 mg/kg i.p.). Rats were sacrificed by decapitation 30 minutes later. The striatum and mesolimbic regions were rapidly dissected from the brains and stored at -70° C. until assayed. Synthesis rates of rat brain catecholamines were estimated by measuring the accumulation of the DA precursor DOPA after NSD 1015 administration by HPLC with electrochemical detection (Puglsey, et al., 1995). Each value represents the mean of four determinations and is expressed as a percent of the control values.

human D2 receptor = human D2 receptor (Homo sapiens, UniProt P14416); experiment: Inhibition of [3H]spiperone binding to human dopamine D2 receptors; conditions: human D2 (Long form), CHO K1 membranes
Excerpt: (§1) A cell line expressing human dopamine D2 (Long form) receptors was purchased from Oregon Health Sciences University, Portland, Oreg. The D2 receptor cDNA was subcloned into an expression vector, pRc/CMV. The plasmids were transfected by electroporation into CHO K1 cells. A single stable transfectant, resistant to the antibiotic 418, was isolated and selected for use in the binding studies. For D4 binding, CHO K1 cells stably transfected to express the human recombinant dopamine D4.2 receptor subtype, as described by Shih, et al., "The expression and functional characterization of human dopamine D4.2 receptor in CHO K1 cells," Soc. Neurosci., 1995;21(Part 1):621.
(§2) CHO K1 cells expressing either human D2 and D4.2 receptors were grown in 162 cm^2 culture flasks in F12 medium (Gibco Laboratories, Grand Island, N.Y.) supplemented with 10% fetal bovine serum (FBS, Hyclone, Logan, Utah) in an atmosphere of 5% CO2 /95% air at 37° C. Cells were grown until confluent, after which growth medium was removed and replaced with 0.02% ethylene diamine tetracetate (EDTA) in a phosphate-buffered saline solution (Sigma Chemical Co., St. Louis, Mo.) and scraped from the flasks. The cells were centrifuged at about 1000×g for 10 minutes at […] and then resuspended in TEM buffer (25 mM Tris-HCl, pH 7.4, 5 mM EDTA, and 6 mM MgCl2) for D2 or the D4.2 buffer (50 mM Tris-HCl, pH 7.4, 5 mM EDTA, 1.5 mM CaCl2, 5 mM KCl, and 120 mM NaCl) and homogenized. The membranes were pelleted by centrifugation at 20,000×g at […] for 20 minutes. Then the pellets were resuspended in appropriate buffer at 1 mL/flask and stored at -70° C. until used in the receptor binding assay.
(§3) Receptor Binding Assays: D2,D4.2 Dopamine Receptors
(§4) After 60 minutes incubation at 25° C., the incubations were terminated by rapid filtration through Whatmann F/B lass fibre filters (soaked for 1 hour in 0.5% polyethylenimine) on a cell harvester, with three washes of 1 mL ice-cold buffer. Individual filter disks containing the bound ligand were placed in counting vials with 4 mL of scintillation fluid (Ready Gel, Beckman Instrument Inc., Fullerton, Calif.) and then counted in a Beckman LS-6800 liquid scintillation counter at an efficiency of 45%. Nonspecific binding was defined in presence of 1 mM of haloperidol.
(§5) Saturation and competition binding data were analyzed using an iterative nonlinear least-square curve-fitting Ligand program. In competition experiments, apparent Ki values were calculated from IC50 values by method of Cheng and Prusoff, "Relationship between the inhibition constant (Ki) and the concentration of inhibitor which causes 50% inhibition (IC50) of an enzymatic reaction," Biochem. Pharmacol., 1973;22:3099-3108. Experimental compounds were made up as stock solutions in dimethyl sulfoxide (DMSO). […] Each observation was carried out in triplicate. To allow these calculations, Ki values were measured for the interaction of various ligands with the receptor. […]

human D4.2 receptor = target: T1, human D4.2 receptor (Homo sapiens, UniProt P21917, DEL265-296); experiment: Inhibition of [3H]spiperone binding to human dopamine D4.2 receptors; conditions: human D4.2, CHO K1 membranes
T1 construct: expressed in transfected cells; host or cells: CHO K1 cells
T1 sequence (P21917 with tags, fused parts or gaps DEL265-296): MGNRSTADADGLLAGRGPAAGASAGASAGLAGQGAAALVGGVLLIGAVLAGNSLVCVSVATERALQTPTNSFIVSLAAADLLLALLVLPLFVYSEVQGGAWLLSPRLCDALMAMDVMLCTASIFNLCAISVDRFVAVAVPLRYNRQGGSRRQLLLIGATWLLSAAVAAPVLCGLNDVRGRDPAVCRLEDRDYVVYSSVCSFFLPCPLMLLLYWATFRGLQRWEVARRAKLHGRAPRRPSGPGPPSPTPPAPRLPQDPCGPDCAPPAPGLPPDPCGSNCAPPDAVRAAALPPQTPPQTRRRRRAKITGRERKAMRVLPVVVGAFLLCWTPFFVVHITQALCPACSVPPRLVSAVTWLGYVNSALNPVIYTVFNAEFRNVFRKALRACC
Excerpt: as §1, §2, §3, §4, §5

[2] = system: amphetamine-stimulated locomotion; experiment: Blockade of amphetamine-stimulated locomotion in rats; assay type: in vivo, rat
Excerpt: PROTOCOL FOR THE BLOCKADE OF AMPHETAMINE-STIMULATED LOCOMOTION IN RATS
The blockade of amphetamine-stimulated locomotion procedure is a modification of the Locomotor Activity Protocol in the Omnitech Digiscan Activity Monitors described above. The blockade of amphetamine-stimulated locomotion procedure uses the central nervous system stimulant d-amphetamine to assess antipsychotic activity of dopaminergic agents.
Male Sprague-Dawley rats (Harlan Labs) were used for these studies. Drugs were dissolved in saline or water, and administered either orally (PO) or intraperitoneally (IP) in volumes of 5 mL/kg. Saline control rats and amphetamine (0.5 mg/kg IP) control rats are included with each study (n=4-6 rats per treatment group). For the IP studies, amphetamine is given 20 minutes prior to the drug, after which a 30 minute locomotor activity test is conducted. For the oral study, drug is dosed 30 minutes prior to the test, while amphetamine is given 15 minutes prior to the test, which allows time for oral absorption. Locomotor activity (centimeters travelled per 30 minute test) is measured in 16"×16" open chambers. Amphetamine generally produces a 2- to 3-fold increase in locomotion over saline controls. Drug effects are reported as percent reversal of amphetamine-stimulated locomotion. Significant changes in amphetamine-stimulated locomotion, relative to amphetamine treated controls, were determined by t-test. The dose which would reverse amphetamine-stimulated locomotion by 50% (ED50) and the 95% confidence limits were estimated by regression analysis.

human DA D4.2 receptor = target: T2, human DA D4.2 receptor (Homo sapiens, UniProt P21917, DEL265-296); experiment: [3H]Thymidine uptake assay (block of quinpirole stimulation in CHO pro-5 cells transfected with human DA D4.2 receptor); assay type: cell-based; conditions: human D4.2, quinpirole-stimulated uptake
T2 construct: expressed in transfected cells
T2 sequence (P21917 with tags, fused parts or gaps DEL265-296): T1 sequence (P21917 with tags, fused parts or gaps DEL265-296)
Protocol: Compounds were tested for their ability to bind to dopamine (DA) receptors as measured by their inhibition of [^3 H]spiperone binding to the human D2, and D4.2 receptors (Pugsley, et al., 1995). The ability of test compounds to block the stimulation of [^3 H]thymidine uptake in CHO pro-5 cells transfected with human DA D4.2 receptor cDNA caused by the DA agonist quinpirole was employed as an in vitro measure of DA receptor antagonist activity (Pugsley, et al., 1995). The effects of compounds on synthesis rates of rat brain catecholamines were estimated by measuring the accumulation of [3-(3,4-dihydroxyphenyl)-L-alanine (DOPA) after administration of the L-aromatic amino acid decarboxylase inhibitor, NSD 1015 (Pugsley, et al., 1995).
[^3 H]Thymidine Uptake Assay
The effects of test compounds on [^3 H]thymidine uptake were carried out essentially as described by Pugsley, et al., 1995. CHO p-5 cells transfected with human D4.2 cDNA were seeded into 96-well plates at a density of about 5000 cells/well and were grown at 37° C. in a minimum essential medium (aMEM, Gibco) with 10% calf serum for 2 days. The wells were then rinsed three times with serum-free media. Fresh media ([…]) was added along with […] of test compound in water or vehicle alone. Eight wells of each plate received […] of aMEM with 10% fetal calf serum. After culture for 16 to 17 hours, [3H]thymidine ([…]) was added for 4 hours. The cells were trypsinized and harvested onto filter mats with a 96-well Brandel cell harvester. The filters were counted in a Beta-Plate scintillation counter.

[3] = system: apomorphine-induced disruption of prepulse inhibition; conditions: rat, background statement; cited from earlier work

human D2 receptor, sequence (P14416 whole entry): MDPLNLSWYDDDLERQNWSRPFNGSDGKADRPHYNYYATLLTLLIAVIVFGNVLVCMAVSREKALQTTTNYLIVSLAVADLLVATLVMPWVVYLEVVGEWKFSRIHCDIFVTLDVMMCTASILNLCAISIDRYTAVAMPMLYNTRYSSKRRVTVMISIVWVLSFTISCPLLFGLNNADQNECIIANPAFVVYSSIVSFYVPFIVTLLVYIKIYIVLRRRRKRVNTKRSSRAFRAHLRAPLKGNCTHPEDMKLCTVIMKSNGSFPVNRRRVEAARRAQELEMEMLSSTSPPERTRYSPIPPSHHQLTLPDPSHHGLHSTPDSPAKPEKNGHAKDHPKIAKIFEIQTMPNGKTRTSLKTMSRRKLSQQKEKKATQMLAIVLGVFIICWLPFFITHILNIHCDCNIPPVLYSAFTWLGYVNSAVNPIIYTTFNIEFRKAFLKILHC

Q: Which results are given for `Clc1ccc(N2CCN(Cc3ccc4c(c3)NCCN4)CC2)cc1Cl` [Example 7, 6-[4-(3,4-Dichlorophenyl)piperazin-1-ylmethyl]-1,2,3,4-tetrahydroquinoxaline]?
A: DA Synthesis in Rat Striatum [1]: +23% of the control values; pIC50 (human D2 receptor): 5.78; pIC50 (human D4.2 receptor): 8.30; blockade of amphetamine-stimulated locomotion ([2]; rat, 30 mg/kg PO): 100%

Q: With `Clc1ccc(N2CCN(Cc3ccc4c(c3)NCCN4)CC2)cc1` [Example 5, 6-[4-(4-Chlorophenyl)piperazin-1-ylmethyl]1,2,3,4-tetrahydroquinoxaline] as the molecule, how does the pIC50 (human DA D4.2 receptor) read?
A: The pIC50 was 7.72.

Q: What about the “DA Synthesis in Rat Striatum” value [1] of the same molecule?
A: The value was “+20% of the control values”.

Q: What about the pIC50 (human D4.2 receptor) of the same molecule?
A: The pIC50 was 8.22.

Q: With `Cc1ccc(N2CCN(Cc3ccc4c(c3)NCCN4)CC2)cc1` [Example 8, 6-(4-p-Tolylpiperazin-1-ylmethyl)-1,2,3,4-tetrahydroquinoxaline] as the molecule, how does the pIC50 (human DA D4.2 receptor) read?
A: The pIC50 was 8.09.

Q: And the “DA Synthesis in Rat Striatum” value [1]?
A: The value was “+39% of the control values”.

Q: What about the pIC50 (human D4.2 receptor) of the same molecule?
A: The pIC50 was 7.95.

Q: With `c1ccc(N2CCN(Cc3ccc4c(c3)NCCN4)CC2)cc1` [Example 3, 6-(4-Phenylpiperazin-1-ylmethyl)-1,2,3,4-tetrahydroquinoxaline] as the molecule, how does the pIC50 (human D2 receptor) read?
A: The pIC50 was 5.49.

Q: What about the pIC50 (human D4.2 receptor) of the same molecule?
A: The pIC50 was 7.30.

Q: What does the source list for `FC(F)(F)c1cccc(N2CCN(Cc3ccc4c(c3)NCCN4)CC2)c1` [Example 11, 6-[4-(3-Trifluoromethylphenyl)piperazin-1-ylmethyl]-1,2,3,4-tetrahydroquinoxaline]?
A: pIC50 (human D2 receptor): 6.17; pIC50 (human D4.2 receptor): 7.66

Q: Which “blocking of PPI by DA agonists (result in words)” value [3] does the source give for `CC(N)Cc1ccccc1` (stereo not drawn) [amphetamine] here?
A: Its value is “can be blocked”.

Q: With `COc1ccc(N2CCN(Cc3ccc4c(c3)NCCN4)CC2)cc1` [Example 4, 6-[4-(4-Methoxyphenyl)piperazin-1-ylmethyl]-1,2,3,4-tetrahydroquinoxaline] as the molecule, how does the pIC50 (human D4.2 receptor) read?
A: Its pIC50 is 7.41.

Q: Which “antagonism of DA agonist-induced disruption of PPI (result in words)” value [3] does the source give for `CN1CCN(C2=Nc3cc(Cl)ccc3Nc3ccccc32)CC1` [clozapine] here?
A: The value was “can be blocked”.

Q: With `Fc1ccc(N2CCN(Cc3ccc4c(c3)NCCN4)CC2)cc1` [Example 6, 6-[4-(4-Fluorophenyl)piperazin-1-ylmethyl]-1,2,3,4-tetrahydroquinoxaline] as the molecule, how does the pIC50 (human D4.2 receptor) read?
A: Its pIC50 is 7.30.

Q: With `O=C(CCCN1CCC(O)(c2ccc(Cl)cc2)CC1)c1ccc(F)cc1` [haloperidol] as the molecule, how does the “antagonism of DA agonist-induced disruption of PPI (result in words)” value [3] read?
A: The value was “can be antagonized”.

Q: With `CN1CCc2cccc3c2[C@H]1Cc1ccc(O)c(O)c1-3` [apomorphine] as the molecule, how does the “blocking of PPI by DA agonists (result in words)” value [3] read?
A: Its value is “can be blocked”.

Q: Which results are given for `Cc1ccc(N2CCN(Cc3ccc4c(c3)NCCN4)CC2)cc1Cl` [Example 1, 6-[4-(3-Chloro-4-methylphenyl)piperazin-1-ylmethyl]-1,2,3,4-tetrahydroquinoxaline]?
A: pIC50 (human DA D4.2 receptor): 8.00; DA Synthesis in Rat Hippocampus [1]: +62% of the control values; DA Synthesis in Rat Striatum [1]: -9% of the control values; pIC50 (human D2 receptor): 5.74; pIC50 (human D4.2 receptor): 8.41; blockade of amphetamine-stimulated locomotion (result in words) ([2]; rat, 3, 10, and 30 mg/kg IP): dose-dependent blockade; ED50 ([2]; rat, IP, read-out: blockade of amphetamine-stimulated locomotion ED50): 9.1 mg/kg; ED50 ([2]; rat, PO, read-out: oral blockade of amphetamine-stimulated locomotion ED50): > 30 mg/kg

Q: With `Cc1ccnc(N2CCN(Cc3ccc4c(c3)NCCN4)CC2)c1` [Example 10, 6-[4-(4-Methylpyridin-2-yl)piperazin-1-ylmethyl]-1,2,3,4-tetrahydroquinoxaline] as the molecule, how does the pIC50 (human D4.2 receptor) read?
A: Its pIC50 is 7.46.

Q: With `Cc1cccc(N2CCN(Cc3ccc4c(c3)NCCN4)CC2)c1` [Example 9, 6-(4-m-Tolylpiperazin-1-ylmethyl)-1,2,3,4-tetrahydroquinoxaline] as the molecule, how does the pIC50 (human D4.2 receptor) read?
A: Its pIC50 is 7.44.

— patent publication US5885994A, “Tetrahydroquinoxaline dopamine D4 receptor antagonists” (Warner-Lambert Company, priority 1998, dated 1999)
